Experimental data: patent US5977133A, “Pyridone antibiotic with improved safety profile” (priority 1998, dated 1999)
≈ marks a conversion by molar mass, not a printed value.

Tests used:
Format in all cases: cell-based
B. fragilis = experiment: In vitro MIC, agar dilution; settings: Bacteroides fragilis
S. pneumoniae (CiproR) = experiment: In vitro MIC, agar dilution; settings: Streptococcus pneumoniae; S. pneumoniae (CiproR), 3 isolates; read-out: MIC Range
N. gonorrhoeae = experiment: In vitro MIC, agar dilution; settings: Neisseria gonorrhoeae
S. pyogenes = experiment: In vitro MIC, agar dilution; settings: Streptococcus pyogenes
E. faecium (VanS) = experiment: In vitro MIC, agar dilution; settings: Enterococcus faecium
P. aeruginosa (CiproS) = experiment: In vitro MIC, agar dilution; settings: Pseudomonas aeruginosa
S. aureus (CiproS) = experiment: In vitro MIC, agar dilution; settings: Staphylococcus aureus
M. pneumoniae = experiment: In vitro MIC, agar dilution; settings: Mycoplasmoides pneumoniae; M. pneumoniae, 7 isolates; read-out: MIC Range
Enterobacter spp. = experiment: In vitro MIC, agar dilution; settings: Enterobacter
E. faecium (CiproS) = experiment: In vitro MIC, agar dilution; settings: Enterococcus faecium, E. faecium (CiproS), 16 isolates
Enterococcus spp. (VanR) = experiment: In vitro MIC, agar dilution; settings: Enterococcus spp. (VanR), 21 isolates
S. pneumoniae (PenR) = experiment: In vitro MIC, agar dilution; settings: Streptococcus pneumoniae
S. pneumoniae (PenS) = experiment: In vitro MIC, agar dilution; settings: Streptococcus pneumoniae
Shigella spp. = experiment: microbe, parasite or virus in culture; settings: read-out: MIC Range
C. perfringens = experiment: microbe, parasite or virus in culture; settings: Clostridium perfringens
Providencia spp. = experiment: In vitro MIC, agar dilution
S. aureus (CiproR) = experiment: In vitro MIC, agar dilution; settings: Staphylococcus aureus, S. aureus (CiproR), 25 isolates
E. faecalis (VanS) = experiment: In vitro MIC, agar dilution; settings: Enterococcus faecalis
S. epidermidis (CiproS) = experiment: In vitro MIC, agar dilution; settings: Staphylococcus epidermidis
S. epidermidis (CiproR) = experiment: In vitro MIC, agar dilution; settings: Staphylococcus epidermidis, S. epidermidis (CiproR), 11 isolates
Legionella spp. = experiment: microbe, parasite or virus in culture; settings: Legionella
H. influenzae = experiment: In vitro MIC, agar dilution; settings: Haemophilus influenzae, H. influenzae, 18 isolates
M. avium = experiment: In vitro MIC, agar dilution; settings: Mycobacterium avium
E. faecium (CiproR) = experiment: In vitro MIC, agar dilution; settings: Enterococcus faecium; E. faecium (CiproR), 2 isolates; read-out: MIC Range
P. aeruginosa (CiproR) = experiment: In vitro MIC, agar dilution; settings: Pseudomonas aeruginosa
Klebsiella spp. = experiment: In vitro MIC, agar dilution
E. coli = experiment: In vitro MIC, agar dilution; settings: Escherichia coli, 25 isolates
Summary of the method: (§1)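 Agar dilution plates were inoculated with ~10^4 CFU per spot by replicator, using 1:100 dilutions (1:10 for slow growers) and incubated at 35–37 °C for 20–24 h. MIC is the lowest concentration giving no growth, where slight haze or sparse colonies count as none, judged against a compound-free BHI agar control.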

Salmonella spp. = experiment: In vitro MIC, agar dilution; settings: 23 isolates
Summary of the method: as §1

P. mirabilis = experiment: In vitro MIC, agar dilution; settings: Proteus mirabilis

NC1CCN(c2c(F)cc3c(=O)c(C(=O)O)cn(C4CC4)c3c2Cl)C1 (stereo not drawn) [Clinafloxacin, clinafloxacin]
MIC90 (B. fragilis): 0.5 µg/mL (≈ 1.37 µM) | MIC (B. fragilis; read-out: MIC Range): 0.06 to 0.5 µg/mL (≈ 0.164 to 1.37 µM) | MIC50 (B. fragilis; B. fragilis, 18 isolates, read-out: MIC50): 0.25 µg/mL (≈ 0.683 µM) | MIC (S. pneumoniae (CiproR)): 0.12 µg/mL (≈ 0.328 µM) | MIC90 (N. gonorrhoeae): 0.015 µg/mL (≈ 0.041 µM) | MIC50 (N. gonorrhoeae; N. gonorrhoeae, 12 isolates, read-out: MIC50): 0.004 µg/mL (≈ 0.0109 µM) | MIC (N. gonorrhoeae; N. gonorrhoeae, 12 isolates, read-out: MIC Range): 0.004 to 0.015 µg/mL (≈ 0.0109 to 0.041 µM) | MIC90 (S. pyogenes): 0.06 µg/mL (≈ 0.164 µM) | MIC (S. pyogenes; read-out: MIC Range): 0.06 to 0.12 µg/mL (≈ 0.164 to 0.328 µM) | MIC50 (S. pyogenes; S. pyogenes, 21 isolates, read-out: MIC50): 0.06 µg/mL (≈ 0.164 µM) | MIC (E. faecium (VanS); read-out: MIC Range): 0.12 to 1 µg/mL (≈ 0.328 to 2.73 µM) | MIC50 (E. faecium (VanS); E. faecium (VanS), 11 isolates, read-out: MIC50): 0.5 µg/mL (≈ 1.37 µM) | MIC90 (E. faecium (VanS); E. faecium (VanS), 11 isolates, read-out: MIC90): 1 µg/mL (≈ 2.73 µM) | MIC90 (P. aeruginosa (CiproS)): 0.5 µg/mL (≈ 1.37 µM) | MIC50 (P. aeruginosa (CiproS); P. aeruginosa (CiproS), 24 isolates, read-out: MIC50): 0.12 µg/mL (≈ 0.328 µM) | MIC (P. aeruginosa (CiproS); P. aeruginosa (CiproS), 24 isolates, read-out: MIC Range): 0.015 to 0.5 µg/mL (≈ 0.041 to 1.37 µM) | MIC50 (S. aureus (CiproS)): 0.03 µg/mL (≈ 0.082 µM) | MIC90 (S. aureus (CiproS)): 0.03 µg/mL (≈ 0.082 µM) | MIC (S. aureus (CiproS); S. aureus (CiproS), 21 isolates, read-out: MIC Range): 0.015 to 0.03 µg/mL (≈ 0.041 to 0.082 µM) | MIC (M. pneumoniae): 0.015 to 0.03 µg/mL (≈ 0.041 to 0.082 µM) | MIC50 (Enterobacter spp.): 0.03 µg/mL (≈ 0.082 µM) | MIC90 (Enterobacter spp.): 0.03 µg/mL (≈ 0.082 µM) | MIC (Enterobacter spp.; read-out: MIC Range): 0.03 to 0.12 µg/mL (≈ 0.082 to 0.328 µM) | MIC50 (E. faecium (CiproS); read-out: MIC50): 1 µg/mL (≈ 2.73 µM) | MIC90 (E. faecium (CiproS); read-out: MIC90): 2 µg/mL (≈ 5.47 µM) | MIC (E. faecium (CiproS); read-out: MIC Range): 0.5 to 8 µg/mL (≈ 1.37 to 21.9 µM) | MIC50 (Enterococcus spp. (VanR); read-out: MIC50): 1 µg/mL (≈ 2.73 µM) | MIC90 (Enterococcus spp. (VanR); read-out: MIC90): 2 µg/mL (≈ 5.47 µM) | MIC (Enterococcus spp. (VanR); read-out: MIC Range): 0.12 to 8 µg/mL (≈ 0.328 to 21.9 µM) | MIC90 (S. pneumoniae (PenR)): 0.25 µg/mL (≈ 0.683 µM) | MIC (S. pneumoniae (PenR); read-out: MIC Range): 0.06 to 0.25 µg/mL (≈ 0.164 to 0.683 µM) | MIC50 (S. pneumoniae (PenR); S. pneumoniae (PenR), 25 isolates, read-out: MIC50): 0.12 µg/mL (≈ 0.328 µM) | MIC90 (S. pneumoniae (PenS)): 0.12 µg/mL (≈ 0.328 µM) | MIC50 (S. pneumoniae (PenS); S. pneumoniae (PenS), 20 isolates, read-out: MIC50): 0.06 µg/mL (≈ 0.164 µM) | MIC (S. pneumoniae (PenS); S. pneumoniae (PenS), 20 isolates, read-out: MIC Range): 0.03 to 0.12 µg/mL (≈ 0.082 to 0.328 µM) | MIC (Shigella spp.): 0.008 to 0.015 µg/mL (≈ 0.0219 to 0.041 µM) | MIC50 (C. perfringens): 0.12 µg/mL (≈ 0.328 µM) | MIC90 (C. perfringens; C. perfringens, 13 isolates): 0.12 µg/mL (≈ 0.328 µM) | MIC (C. perfringens; read-out: MIC Range): 0.06 to 0.12 µg/mL (≈ 0.164 to 0.328 µM) | MIC90 (Providencia spp.; Providencia): 0.03 µg/mL (≈ 0.082 µM) | MIC50 (Providencia spp.; Providencia spp., 28 isolates, read-out: MIC50): 0.015 µg/mL (≈ 0.041 µM) | MIC (Providencia spp.; Providencia spp., 28 isolates, read-out: MIC Range): 0.008 to 0.12 µg/mL (≈ 0.0219 to 0.328 µM) | MIC50 (S. aureus (CiproR); read-out: MIC50): 0.5 µg/mL (≈ 1.37 µM) | MIC90 (S. aureus (CiproR); read-out: MIC90): 1 µg/mL (≈ 2.73 µM) | MIC (S. aureus (CiproR); read-out: MIC Range): 0.25 to 2 µg/mL (≈ 0.683 to 5.47 µM) | MIC90 (E. faecalis (VanS)): 0.25 µg/mL (≈ 0.683 µM) | MIC (E. faecalis (VanS); read-out: MIC Range): 0.12 to 0.25 µg/mL (≈ 0.328 to 0.683 µM) | MIC50 (E. faecalis (VanS); E. faecalis (VanS), 17 isolates, read-out: MIC50): 0.25 µg/mL (≈ 0.683 µM) | MIC50 (S. epidermidis (CiproS)): 0.03 µg/mL (≈ 0.082 µM) | MIC90 (S. epidermidis (CiproS)): 0.03 µg/mL (≈ 0.082 µM) | MIC (S. epidermidis (CiproS); S. epidermidis (CiproS), 23 isolates, read-out: MIC Range): 0.015 to 0.06 µg/mL (≈ 0.041 to 0.164 µM) | MIC50 (S. epidermidis (CiproR); read-out: MIC50): 0.5 µg/mL (≈ 1.37 µM) | MIC90 (S. epidermidis (CiproR); read-out: MIC90): 1 µg/mL (≈ 2.73 µM) | MIC (S. epidermidis (CiproR); read-out: MIC Range): 0.25 to 2 µg/mL (≈ 0.683 to 5.47 µM) | MIC50 (Legionella spp.): 0.06 µg/mL (≈ 0.164 µM) | MIC90 (Legionella spp.): 0.12 µg/mL (≈ 0.328 µM) | MIC (Legionella spp.; read-out: MIC Range): 0.03 to 0.12 µg/mL (≈ 0.082 to 0.328 µM) | MIC50 (H. influenzae; read-out: MIC50): 0.008 µg/mL (≈ 0.0219 µM) | MIC90 (H. influenzae; read-out: MIC90): 0.008 µg/mL (≈ 0.0219 µM) | MIC (H. influenzae; read-out: MIC Range): 0.004 to 0.008 µg/mL (≈ 0.0109 to 0.0219 µM) | MIC90 (M. avium): 32 µg/mL (≈ 87.5 µM) | MIC50 (M. avium; M. avium, 20 isolates, read-out: MIC50): 16 µg/mL (≈ 43.7 µM) | MIC (E. faecium (CiproR)): 2 to 8 µg/mL (≈ 5.47 to 21.9 µM) | MIC (P. aeruginosa (CiproR); read-out: MIC Range): 2 to 32 µg/mL (≈ 5.47 to 87.5 µM) | MIC50 (P. aeruginosa (CiproR); P. aeruginosa (CiproR), 20 isolates, read-out: MIC50): 4 µg/mL (≈ 10.9 µM) | MIC90 (P. aeruginosa (CiproR); P. aeruginosa (CiproR), 20 isolates, read-out: MIC90): 8 µg/mL (≈ 21.9 µM) | MIC50 (Klebsiella spp.; Klebsiella): 0.03 µg/mL (≈ 0.082 µM) | MIC90 (Klebsiella spp.; Klebsiella): 0.03 µg/mL (≈ 0.082 µM) | MIC (Klebsiella spp.; Klebsiella spp., 29 isolates, read-out: MIC Range): 0.004 to 0.12 µg/mL (≈ 0.0109 to 0.328 µM) | MIC (E. coli): 0.008 to 0.03 µg/mL (≈ 0.0219 to 0.082 µM) | MIC50 (E. coli; read-out: MIC50): 0.015 µg/mL (≈ 0.041 µM) | MIC90 (E. coli; read-out: MIC90): 0.015 µg/mL (≈ 0.041 µM) | MIC (Salmonella spp.): 0.004 to 0.25 µg/mL (≈ 0.0109 to 0.683 µM) | MIC50 (Salmonella spp.; read-out: MIC50): 0.015 µg/mL (≈ 0.041 µM) | MIC90 (Salmonella spp.; read-out: MIC90): 0.03 µg/mL (≈ 0.082 µM) | MIC50 (P. mirabilis): 0.03 µg/mL (≈ 0.082 µM) | MIC90 (P. mirabilis): 0.06 µg/mL (≈ 0.164 µM) | MIC (P. mirabilis; P. mirabilis, 20 isolates, read-out: MIC Range): 0.03 to 0.06 µg/mL (≈ 0.082 to 0.164 µM)
